Test results from patent publication US9469617B2, “Molecules having certain pesticidal utilities, and intermediates, compositions, and processes related thereto” (priority 2014, dated 2016).

Experiments:
Assay type in all cases: in vivo
[1] = system: Beet Armyworm (BAW) (Spodoptera exigua); assay: Bioassay on Beet Armyworm (BAW), 128-well diet tray assay; conditions: 168 h, Table ABC, 50 μg/cm^2 on artificial diet, second instar larvae, five to seven days, 25° C., read-out: BAW % Control (or Mortality) rating
Method: (§1) Certain molecules disclosed in this document were tested against BAW and CL using procedures described in the following examples. In the reporting of the results, the “BAW & CL Rating Table” was used (See Table Section).
Bioassays on BAW were conducted using a 128-well diet tray assay. one to five second instar BAW larvae were placed in each well (3 mL) of the diet tray that had been previously filled with 1 mL of artificial diet to which 50 μg/cm^2 of the test compound (dissolved in 50 μL of 90:10 acetone-water mixture) had been applied (to each of eight wells) and then allowed to dry. Trays were covered with a clear self-adhesive cover, and held at 25° C., 14:10 light-dark for five to seven days. Percent mortality was recorded for the larvae in each well; activity in the eight wells was then averaged. The results are indicated in the tables entitled “Table ABC: Assay Results” and “Table ABCD: Assay Results” (See Table Section).

[2] = system: Yellow Fever Mosquito (YFM) (Aedes aegypti); assay: Bioassay on Yellow Fever Mosquito (YFM) larvae, 96-well plate; conditions: Table ABC; about 1 day-old larvae, master plate 4000 ppm in DMSO diluted, scored on mortality after 3 days
Method: Certain molecules disclosed in this document were tested against YFM using procedures described in the following paragraph. In the reporting of the results, the “GPA & YFM Rating Table” was used (See Table Section).
Master plates containing 400 μg of a molecule dissolved in 100 μL of dimethyl sulfoxide (DMSO) (equivalent to a 4000 ppm solution) are used. A master plate of assembled molecules contains 15 μL per well. To this plate, 135 μL of a 90:10 water:acetone mixture is added to each well. A robot (Biomek® NXP Laboratory Automation Workstation) is programmed to dispense 15 μL aspirations from the master plate into an empty 96-well shallow plate (“daughter” plate). There are 6 reps (“daughter” plates) created per master. The created daughter plates are then immediately infested with YFM larvae.
The day before plates are to be treated, mosquito eggs are placed in Millipore water containing liver powder to begin hatching (4 g. into 400 mL). After the daughter plates are created using the robot, they are infested with 220 μL of the liver powder/larval mosquito mixture (about 1 day-old larvae). After plates are infested with mosquito larvae, a non-evaporative lid is used to cover the plate to reduce drying. Plates are held at room temperature for 3 days prior to grading. After 3 days, each well is observed and scored based on mortality.

[3] = system: Cabbage Looper (CL) (Trichoplusia ni); assay: Bioassay on Cabbage Looper (CL), 128-well diet tray assay; conditions: 168 h, Table ABC, 50 μg/cm^2 on artificial diet, second instar larvae, five to seven days, 25° C., read-out: CL % Control (or Mortality) rating
Method: as §1
Bioassays on CL were conducted using a 128-well diet tray assay. One to five second instar CL larvae were placed in each well (3 mL) of the diet tray that had been previously filled with 1 mL of artificial diet to which 50 μg/cm^2 of the test compound (dissolved in 50 μL of 90:10 acetone-water mixture) had been applied (to each of eight wells) and then allowed to dry. Trays were covered with a clear self-adhesive cover, and held at 25° C., 14:10 light-dark for five to seven days. Percent mortality was recorded for the larvae in each well; activity in the eight wells was then averaged. The results are indicated in the table entitled “Table ABC: Assay Results” and “Table ABCD: Assay Results” (See Table Section).

Row | Structure (SMILES) | mortality at 50 µg/cm2 [1] | YFM % Control (or Mortality) rating [2] | mortality at 50 µg/cm2 [3]
1 | O=C(NC(=S)Nc1ccccc1C1CC1)NC1Cc2ccc(-c3ncn(-c4ccc(OC(F)(F)F)cc4)n3)cc2C1 (stereo not drawn) [F11, 1-[(2-Cyclopropylphenyl)carbamothioyl]-3-[5-[1-[4-(trifluoromethoxy)phenyl]-1,2,4-triazol-3-yl]indan-2-yl]urea] | 50 to 100% | A (80-100) | 50 to 100%
2 | CC(C)c1ccccc1N1C(=O)CS/C1=N\C(=O)NC1Cc2ccc(-c3ncn(-c4ccc(OC(F)(F)F)cc4)n3)cc2C1 (stereo not drawn) [F16, (Z)-1-(3-(2-Isopropylphenyl)-4-oxothiazolidin-2-ylidene)-3-(5-(1-(4-(trifluoromethoxy)phenyl)-1H-1,2,4-triazol-3-yl)-2,3-dihydro-1H-inden-2-yl)urea] | 50 to 100% | A (80-100) | 50 to 100%
3 | Cc1ccc(C(C)C)c(N2C(=O)CS/C2=N\C(=O)NC2CCc3cc(-c4ncn(-c5ccc(OC(F)(F)F)cc5)n4)ccc3C2)c1 (stereo not drawn) [F17, (Z)-1-(3-(2-isopropyl-5-methylphenyl)-4-oxothiazolidin-2-ylidene)-3-(6-(1-(4-(trifluoromethoxy)phenyl)-1H-1,2,4-triazol-3-yl)-1,2,3,4-tetrahydronaphthalen-2-yl)urea] | 50 to 100% | A (80-100) | 50 to 100%
4 | Cc1cs/c(=N\C(=O)NC2Cc3ccc(-c4ncn(-c5ccc(OC(F)(F)F)cc5)n4)cc3C2)n1-c1ccccc1C(C)C (stereo not drawn) [FA1, (Z)-1-(3-(2-isopropylphenyl)-4-methylthiazol-2(3H)-ylidene)-3-(5-(1-(4-(trifluoromethoxy)phenyl)-1H-1,2,4-triazol-3-yl)-2,3-dihydro-1H-inden-2-yl)urea] | 50 to 100% | A (80-100) | 50 to 100%
5 | CC(C)c1ccccc1N1/C(=N/C(=O)NC2Cc3ccc(-c4ncn(-c5ccc(OC(F)(F)F)cc5)n4)cc3C2)SCC1C (stereo not drawn) [FA3, (Z)-1-(3-(2-isopropylphenyl)-4-methylthiazolidin-2-ylidene)-3-(5-(1-(4-(trifluoromethoxy)phenyl)-1H-1,2,4-triazol-3-yl)-2,3-dihydro-1H-inden-2-yl)urea] | 50 to 100% | B (More than 0-Less than 80) | 0%
6 | CC1CS/C(=N\C(=O)NC2Cc3ccc(-c4ncn(-c5ccc(OC(F)(F)F)cc5)n4)cc3C2)N(c2ccccc2C(C)C)C1 (stereo not drawn) [FA5, (Z)-1-(3-(2-Isopropylphenyl)-5-methyl-1,3-thiazinan-2-ylidene)-3-(5-(1-(4-(trifluoromethoxy)phenyl)-1H-1,2,4-triazol-3-yl)-2,3-dihydro-1H-inden-2-yl)urea] | 50 to 100% | A (80-100) | 50 to 100%
7 | CC(C)c1ccccc1N1/C(=N/C(=O)NC2Cc3ccc(-c4ncn(-c5ccc(OC(F)(F)F)cc5)n4)cc3C2)SCCC1C (stereo not drawn) [FA6, (Z)-1-(3-(2-Isopropylphenyl)-4-methyl-1,3-thiazinan-2-ylidene)-3-(5-(1-(4-(trifluoromethoxy)phenyl)-1H-1,2,4-triazol-3-yl)-2,3-dihydro-1H-inden-2-yl)urea] | 50 to 100% | A (80-100) | 50 to 100%
8 | COc1ccc(NC(=S)NC(=O)NC2Cc3ccc(-c4ncn(-c5ccc(OC(F)(F)F)cc5)n4)cc3C2)c(C)c1 (stereo not drawn) [P1] | 50 to 100% | A (80-100) | 50 to 100%
9 | CC(C)c1cc(F)ccc1NC(=S)NC(=O)NC1Cc2ccc(-c3ncn(-c4ccc(OC(F)(F)F)cc4)n3)cc2C1 (stereo not drawn) [P2, 1-[(4-Fluoro-2-isopropyl-phenyl)carbamothioyl]-3-[5-[1-[4-(trifluoromethoxy)phenyl]-1,2,4-triazol-3-yl]indan-2-yl]urea] | 50 to 100% | A (80-100) | 50 to 100%
10 | CC(C)c1ccc(Cl)cc1NC(=S)NC(=O)NC1Cc2ccc(-c3ncn(-c4ccc(OC(F)(F)F)cc4)n3)cc2C1 (stereo not drawn) [P3, 1-[(5-Chloro-2-isopropyl-phenyl)carbamothioyl]-3-[5-[1-[4-(trifluoromethoxy)phenyl]-1,2,4-triazol-3-yl]indan-2-yl]urea] | 50 to 100% | A (80-100) | 50 to 100%
11 | COc1ccc(C(C)C)c(NC(=S)NC(=O)NC2Cc3ccc(-c4ncn(-c5ccc(OC(F)(F)F)cc5)n4)cc3C2)c1 (stereo not drawn) [P4, 1-[(2-Isopropyl-5-methoxy-phenyl)carbamothioyl]-3-[5-[1-[4-(trifluoromethoxy)phenyl]-1,2,4-triazol-3-yl]indan-2-yl]urea] | 50 to 100% | A (80-100) | 50 to 100%
12 | Cc1ccc(NC(=S)NC(=O)NC2Cc3ccc(-c4ncn(-c5ccc(OC(F)(F)F)cc5)n4)cc3C2)c(C(C)C)c1 (stereo not drawn) [P5, 1-[(2-Isopropyl-4-methyl-phenyl)carbamothioyl]-3-[5-[1-[4-(trifluoromethoxy)phenyl]-1,2,4-triazol-3-yl]indan-2-yl]urea] | 50 to 100% | A (80-100) | 50 to 100%
13 | COc1ccc(N2C(=O)CS/C2=N\C(=O)NC2Cc3ccc(-c4ncn(-c5ccc(OC(F)(F)F)cc5)n4)cc3C2)c(C)c1 (stereo not drawn) [P6, (Z)-1-(3-(4-methoxy-2-methylphenyl)-4-oxothiazolidin-2-ylidene)-3-(5-(1-(4-(trifluoromethoxy)phenyl)-1H-1,2,4-triazol-3-yl)-2,3-dihydro-1H-inden-2-yl)urea] | 50 to 100% | A (80-100) | 50 to 100%
14 | Cc1ccc(N2C(=O)CS/C2=N\C(=O)NC2Cc3ccc(-c4ncn(-c5ccc(OC(F)(F)F)cc5)n4)cc3C2)c(C(C)C)c1 (stereo not drawn) [P7, (Z)-1-(3-(2-Isopropyl-4-methylphenyl)-4-oxothiazolidin-2-ylidene)-3-(5-(1-(4-(trifluoromethoxy)phenyl)-1H-1,2,4-triazol-3-yl)-2,3-dihydro-1H-inden-2-yl)urea] | 50 to 100% | A (80-100) | 50 to 100%
15 | CC(C)c1ccc(Cl)cc1N1C(=O)CS/C1=N\C(=O)NC1Cc2ccc(-c3ncn(-c4ccc(OC(F)(F)F)cc4)n3)cc2C1 (stereo not drawn) [P8, (Z)-1-(3-(5-Chloro-2-isopropylphenyl)-4-oxothiazolidin-2-ylidene)-3-(5-(1-(4-(trifluoromethoxy)phenyl)-1H-1,2,4-triazol-3-yl)-2,3-dihydro-1H-inden-2-yl)urea] | 50 to 100% | A (80-100) | 50 to 100%
16 | COc1ccc(C(C)C)c(N2C(=O)CS/C2=N\C(=O)NC2Cc3ccc(-c4ncn(-c5ccc(OC(F)(F)F)cc5)n4)cc3C2)c1 (stereo not drawn) [P9, (Z)-1-(3-(2-Isopropyl-5-methoxyphenyl)-4-oxothiazolidin-2-ylidene)-3-(5-(1-(4-(trifluoromethoxy)phenyl)-1H-1,2,4-triazol-3-yl)-2,3-dihydro-1H-inden-2-yl)urea] | 50 to 100% | A (80-100) | 50 to 100%
17 | CC(C)c1cc(F)ccc1N1C(=O)CS/C1=N\C(=O)NC1Cc2ccc(-c3ncn(-c4ccc(OC(F)(F)F)cc4)n3)cc2C1 (stereo not drawn) [P10, (Z)-1-(3-(4-Fluoro-2-isopropylphenyl)-4-oxothiazolidin-2-ylidene)-3-(5-(1-(4-(trifluoromethoxy)phenyl)-1H-1,2,4-triazol-3-yl)-2,3-dihydro-1H-inden-2-yl)urea] | 50 to 100% | A (80-100) | 50 to 100%
